Measurements published in patent US9643970B2, “Substituted imidazo [1,5-a]pyrazines as PDE9 inhibitors” (H Lundbeck A/S, priority 2012, dated 2017).

What follows are compounds tested against PDE9 (Homo sapiens, UniProt O76083) (assay: PDE9 inhibition assay). Conditions: not given.
Type: biochemical
Description: Reactions are initiated by addition of the cyclic nucleotide substrate, and reactions are allowed to proceed for one hr at room temperature before being terminated through mixing with 15 uL 8 mg/mL yttrium silicate SPA beads (Amersham). […] IC50 values were calculated by non linear regression using XLfit (IDBS).

PDE9, sequence (O76083 whole entry): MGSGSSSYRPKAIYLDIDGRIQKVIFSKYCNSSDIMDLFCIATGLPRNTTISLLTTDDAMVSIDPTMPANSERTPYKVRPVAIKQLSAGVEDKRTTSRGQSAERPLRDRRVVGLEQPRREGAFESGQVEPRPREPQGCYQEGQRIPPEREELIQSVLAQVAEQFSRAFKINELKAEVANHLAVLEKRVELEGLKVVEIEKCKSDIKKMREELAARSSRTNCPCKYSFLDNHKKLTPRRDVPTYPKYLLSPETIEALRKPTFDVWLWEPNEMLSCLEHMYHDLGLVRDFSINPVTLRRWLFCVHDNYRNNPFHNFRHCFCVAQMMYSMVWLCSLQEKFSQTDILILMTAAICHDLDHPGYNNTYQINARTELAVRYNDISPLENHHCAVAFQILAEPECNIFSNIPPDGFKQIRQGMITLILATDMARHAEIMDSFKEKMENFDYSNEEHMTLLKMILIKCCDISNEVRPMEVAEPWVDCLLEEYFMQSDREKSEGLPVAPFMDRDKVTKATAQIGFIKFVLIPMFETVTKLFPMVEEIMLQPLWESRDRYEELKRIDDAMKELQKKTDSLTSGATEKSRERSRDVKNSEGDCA

| Compound | IC50 [nM] |
| --- | --- |
| O=c1[nH]c(CN2CC(Oc3cnccn3)C2)cn2c(-c3ccccc3)ncc12 [Compound 4, 3-phenyl-6-[(3-pyrazin-2-yloxyazetidin-1-yl)methyl]-7h-imidazo[1,5-a]pyrazin-8-one] | 32 |
| O=c1[nH]c(CN2CC(Oc3ncccn3)C2)cn2c(-c3ccccc3)ncc12 [Compound 5, 3-phenyl-6-[(3-pyrimidin-2-yloxyazetidin-1-yl)methyl]-7h-imidazo[1,5-a]pyrazin-8-one] | 30 |
| CCc1ccc(C2CN(Cc3cn4c(-c5ccccc5)ncc4c(=O)[nH]3)C2)cc1 [Compound 11, 6-[[3-(4-ethylphenyl)azetidin-1-yl]methyl]-3-phenyl-7h-imidazo[1,5-a]pyrazin-8-one] | 127 |
| Cc1cc(C)nc(OC2CN(Cc3cn4c(-c5ccccc5)ncc4c(=O)[nH]3)C2)n1 [Compound 14, 6-[[3-(4,6-dimethylpyrimidin-2-yl)oxyazetidin-1-yl]methyl]-3-phenyl-7h-imidazo[1,5-a]pyrazin-8-one] | 50 |
| CC(c1cn2c(-c3ccccc3)ncc2c(=O)[nH]1)N1CC(c2ccccc2)C1 (centres unmarked) [Compound 18, 3-phenyl-6-[1-(3-phenylazetidin-1-yl)ethyl]-7h-imidazo[1,5-a]pyrazin-8-one] | 54 |
| O=c1[nH]c(CN2CC(c3ccc(F)cc3)C2)cn2c(-c3ccccc3)ncc12 [Compound 19, 6-[[3-(4-fluorophenyl)azetidin-1-yl]methyl]-3-phenyl-7h-imidazo[1,5-a]pyrazin-8-one] | 69 |
| COC1CN(C(c2ccccc2)c2cn3c(-c4ccccc4)ncc3c(=O)[nH]2)C1 (centres unmarked) [Compound 22, 6-[(3-methoxyazetidin-1-yl)-phenyl-methyl]-3-phenyl-7h-imidazo[1,5-a]pyrazin-8-one] | 37 |
| CC(c1cn2c(-c3ccccc3)ncc2c(=O)[nH]1)N1CC(Oc2ccccc2)C1 (centres unmarked) [Compound 25, 6-[1-(3-phenoxyazetidin-1-yl)ethyl]-3-phenyl-7h-imidazo[1,5-a]pyrazin-8-one] | 28 |
| Cc1ccnc(C2CN(C(C)c3cn4c(-c5ccccc5)ncc4c(=O)[nH]3)C2)c1 (centres unmarked) [Compound 29, 6-[1-[3-(4-methyl-2-pyridyl)azetidin-1-yl]ethyl]-3-phenyl-7h-imidazo[1,5-a]pyrazin-8-one] | 20 |

Same assay, conditions: SPA assay, 10 nM 3H-cAMP, 1 hour incubation; read-out: IC50

| Compound | IC50 [nM] |
| --- | --- |
| COC1CN(C(C)c2cn3c(-c4ccc(F)cc4)ncc3c(=O)[nH]2)C1 (centres unmarked) [Compound 1, 3-(4-fluorophenyl)-6-[1-(3-methoxyazetidin-1-yl)ethyl]-7h-imidazo[1,5-a]pyrazin-8-one] | 73 |
| CC(NCC1CCCCC1)c1cn2c(-c3ccccc3)ncc2c(=O)[nH]1 (centres unmarked) [Compound 2, 6-[1-(cyclohexylmethylamino)ethyl]-3-phenyl-7h-imidazo[1,5-a]pyrazin-8-one] | 187 |
| COC1CN(Cc2cn3c(-c4ccccc4)ncc3c(=O)[nH]2)C1 [Compound 3, 6-[(3-methoxyazetidin-1-yl)methyl]-3-phenyl-7h-imidazo[1,5-a]pyrazin-8-one] | 90 |
| O=c1[nH]c(CN2CC(Oc3cccc(F)n3)C2)cn2c(-c3ccccc3)ncc12 [Compound 6, 6-[[3-[(6-fluoro-2-pyridyl)oxy]azetidin-1-yl]methyl]-3-phenyl-7h-imidazo[1,5-a]pyrazin-8-one] | 31 |
| CC(c1cn2c(-c3ccccc3)ncc2c(=O)[nH]1)N1CC(Oc2ncccn2)C1 (centres unmarked) [Compound 7, 3-phenyl-6-[1-(3-pyrimidin-2-yloxyazetidin-1-yl)ethyl]-7h-imidazo[1,5-a]pyrazin-8-one] | 14 |
| O=c1[nH]c(CN2CC(c3ccccc3)C2)cn2c(-c3ccccc3)ncc12 [Compound 8, 3-phenyl-6-[(3-phenylazetidin-1-yl)methyl]-7h-imidazo[1,5-a]pyrazin-8-one] | 78 |
| CN(Cc1ccccc1)Cc1cn2c(-c3ccccc3)ncc2c(=O)[nH]1 [Compound 9, 6-[[benzyl(methyl)amino]methyl]-3-phenyl-7h-imidazo[1,5-a]pyrazin-8-one] | 156 |
| COC(=O)C1CN(Cc2ccccc2)CC1c1cn2c(-c3ccccc3)ncc2c(=O)[nH]1 (centres unmarked) [Compound 10, methyl 1-benzyl-4-(8-oxo-3-phenyl-7h-imidazo[1,5-a]pyrazin-6-yl)pyrrolidine-3-carboxylate] | 43 |
| CCC(c1cn2c(-c3ccccc3)ncc2c(=O)[nH]1)N1CC(c2ccc(F)cc2)C1 (centres unmarked) [Compound 12, 6-[1-[3-(4-fluorophenyl)azetidin-1-yl]propyl]-3-phenyl-7h-imidazo[1,5-a]pyrazin-8-one] | 19 |
| O=c1[nH]c(CN2CC(Oc3cnc4ccccc4n3)C2)cn2c(-c3ccccc3)ncc12 [Compound 13, 3-phenyl-6-[(3-quinoxalin-2-yloxyazetidin-1-yl)methyl]-7h-imidazo[1,5-a]pyrazin-8-one] | 7 |
| CC(c1cn2c(-c3ccccc3)ncc2c(=O)[nH]1)N1CC(Oc2cnccn2)C1 (centres unmarked) [Compound 15, 3-phenyl-6-[1-(3-pyrazin-2-yloxyazetidin-1-yl)ethyl]-7h-imidazo[1,5-a]pyrazin-8-one] | 40 |
| O=c1[nH]c(CN2CC(Oc3cccc(F)c3)C2)cn2c(-c3ccccc3)ncc12 [Compound 16, 6-[[3-(3-fluorophenoxy)azetidin-1-yl]methyl]-3-phenyl-7h-imidazo[1,5-a]pyrazin-8-one] | 97 |
| O=c1[nH]c(CN2CCC(Nc3ccccc3)C2)cn2c(-c3ccccc3)ncc12 (centres unmarked) [Compound 17, 6-[(3-anilinopyrrolidin-1-yl)methyl]-3-phenyl-7h-imidazo[1,5-a]pyrazin-8-one] | 28 |
| COC1CN(C(C)c2cn3c(-c4ccccc4)ncc3c(=O)[nH]2)C1 (centres unmarked) [Compound 20, 6-[1-(3-methoxyazetidin-1-yl)ethyl]-3-phenyl-7h-imidazo[1,5-a]pyrazin-8-one] | 17 |
| O=c1[nH]c(CN2CC(Oc3ccccc3)C2)cn2c(-c3ccccc3)ncc12 [Compound 21, 6-[(3-phenoxyazetidin-1-yl)methyl]-3-phenyl-7h-imidazo[1,5-a]pyrazin-8-one] | 8 |
| O=c1[nH]c(CN2CC(Oc3ccc(F)cc3)C2)cn2c(-c3ccccc3)ncc12 [Compound 23, 6-[[3-(4-fluorophenoxy)azetidin-1-yl]methyl]-3-phenyl-7h-imidazo[1,5-a]pyrazin-8-one] | 16 |
| CC(c1cn2c(-c3ccccc3)ncc2c(=O)[nH]1)N1CC(Oc2cccc(F)c2)C1 (centres unmarked) [Compound 24, 6-[1-[3-(3-fluorophenoxy)azetidin-1-yl]ethyl]-3-phenyl-7h-imidazo[1,5-a]pyrazin-8-one] | 25 |
| CC(c1cn2c(-c3ccccc3)ncc2c(=O)[nH]1)N1CC(Oc2ccc(F)cc2)C1 (centres unmarked) [Compound 26, 6-[1-[3-(4-fluorophenoxy)azetidin-1-yl]ethyl]-3-phenyl-7h-imidazo[1,5-a]pyrazin-8-one] | 19 |
| CC(c1cn2c(-c3ccccc3)ncc2c(=O)[nH]1)N1CC(Oc2cccc(F)n2)C1 (centres unmarked) [Compound 27, 6-[1-[3-[(6-fluoro-2-pyridyl)oxy]azetidin-1-yl]ethyl]-3-phenyl-7h-imidazo[1,5-a]pyrazin-8-one] | 38 |
| CC(c1cn2c(-c3ccccc3)ncc2c(=O)[nH]1)N1CC(c2ccc(F)cc2)C1 (centres unmarked) [Compound 28, 6-[1-[3-(4-fluorophenyl)azetidin-1-yl]ethyl]-3-phenyl-7h-imidazo[1,5-a]pyrazin-8-one] | 53 |
